pIC50: −log10 of the molar value.
Target: Serine/threonine-protein kinase mTOR (Homo sapiens, UniProt P42345)
Assay: Inhibition of human mTOR measured after 30 mins in presence of ATP by Lanthascreen TR-FRET assay

Q: With `O=C(Nc1ccc(-c2nc(N3CCOCC3)c3c(n2)C2(CC2)OC3)cc1)NC1CC1` as the compound, how does the pIC50 read?
A: > 7.50
